pIC50: −log10 of the molar value. Like-named read-outs stand apart in the source and are kept apart here.
Key:
mTOR kinase = molecular target: T1, mTOR kinase (Homo sapiens, UniProt P42345); experiment: In vitro inhibitory activity on mTOR kinase (TR-FRET, GFP-4E-BP1 substrate); assay type: biochemical; conditions: for pIC50: 0.5 μg/mL mTOR, 0.4 μM GFP-4E-BP1, 3 μM ATP
T1 construct: purchased Thermo Fisher PV4753
Method in brief: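 TR-FRET readout with 0.5 μg/mL mTOR, 0.4 μM GFP-4E-BP1 and 3 μM ATP in HEPES pH 7.5 buffer with 10 mM MnCl2 and 1% DMSO. Compound pre-incubated 15 min, reaction 60 min at room temperature, then stopped with EDTA and Tb-anti-p4E-BP1. IC50 fitted from 520/495 nm ratio.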

[1] = In vivo drug metabolism (pharmacokinetics) in mice, iv and po; design: species or system C57 male mice; conditions: for Tmax / AUC / clearance / half-life / Vd / C0 / Cmax: male, plasma; for Tmax: C57, mouse, 10 mg/kg; for AUC / clearance / half-life / Vd / C0 / Cmax: mouse; for clearance: read-out: CL iv; for Vd: read-out: Vss iv
Description: Experimental animals: C57 male mice (purchased from Beijing Vital River Laboratory Animal Technology Co., Ltd.), bred for 6-8 weeks and weighing 20-30 g, 3 mice in each group of iv/po groups, a total of 6 groups.
Preparation of Sample Solutions:
(1) Preparation of sample solution (1 mg/kg, 5 mL/kg) for injection (iv): 1 mg of the sample to be tested was dissolved in 0.5 mL DMSO, mixed by a vortex mixer, and treated ultrasonically to obtain a stock solution (2 mg/mL); 0.10 mL of the stock solution (2 mg/mL) was added to a vial, then 0.4 mL of PEG400 and 0.5 mL of water were added, and mixed by a vortex shaker, treated ultrasonically to obtain a sample solution with a concentration of 0.2 mg/mL.
(2) Preparation of sample solution (10 mg/kg, 10 mL/kg) for oral administration (po): 1 mg of the sample to be tested was dissolved in 1 mL of “0.5% CMC/0.1% Tween-80 aqueous solution”, mixed by a vortex mixer, and treated ultrasonically to obtain a suspension of the sample to be tested with a concentration of 1 mg/mL.
Liquid Chromatography Method:
(1) Chromatographic column: Waters XSELECT CSH C18, 2.5 μm 2.1×50 mm chromatographic column.
(2) Mobile phase: Phase A: 5% acetonitrile in aqueous solution (0.1% formic acid); Phase B: 95% acetonitrile in aqueous solution (0.1% formic acid).
(3) Flow rate: 0.6 mL/min.
(4) Sampling volume: 20 μL.
For each compound, po group and iv group were set for administration. All experimental animals were fasted overnight before administration, and all administration was performed at room temperature.
Sampling time: for iv group, sampling was performed at 0.083, 0.25, 0.5, 1, 2, 4, 8 and 24 hours after injection administration (iv); for po group, sample was performed at 0.25, 0.5, 1, 2, 4, 8 and 24 hours after oral administration (po).
(1) At each time point, about 0.03 mL of blood was collected. The blood of each sample was transferred to a plastic microcentrifuge tube containing heparin sodium anticoagulant, mixed well with the anticoagulant, and then cooled on ice and centrifuged.
(2) The blood sample was centrifuged at 4000 rpm for 5 minutes at 4° C. to obtain plasma.
(3) The samples was stored in a refrigerator at −75±15° C. for later test.
Analysis and Identification:
The mixed solution of acetonitrile and water (1:1) was used to dilute the stock solution to prepare a series of working solutions.
3 μL of working solution (5, 10, 20, 50, 100, 500, 1000, 5000, 10000 ng/mL) was added to 30 μL of C57 mouse blank plasma to obtain a standard solution with a concentration of 0.5-1000 ng/mL (0.5, 1, 2, 5, 10, 50, 100, 500, 1000 ng/mL), in total of 33 μL. Four quality control samples of 1 ng/mL, 2 ng/mL, 50 ng/mL and 800 ng/mL were used to calibrate the standard curve.
(2) The quality control samples were prepared on the day of analysis, and the method was the same as the standard solution.
(3) 200 μL of acetonitrile containing internal standard solution was added to 33 μL of standard samples, 33 μL of quality control samples and 33 μL of unknown sample (30 μL of plasma and 3 μL of blank solution) to precipitate protein, respectively. The samples were mixed by a vortex mixer for 30 seconds and mixed well. The precipitated samples were centrifuged for 15 minutes at 4° C. and 4000 rpm.
(4) The supernatant was pipetted quantitatively and diluted by 3 times with water, then the diluted supernatant was loaded and quantitatively analyzed by liquid chromatography-mass spectrometry technology.
(5) Detection data were obtained, and pharmacokinetic parameters such as T1/2, Cmax, AUC, AUC, CL, Vss, F were calculated.

[2] = po, po 10 mg/kg, read-out: Tmax po
[3] = po, po, read-out: peak time Tmax
[4] = iv 1 mg/kg, C57 mice, read-out: AUC iv
[5] = iv 1 mg/kg, C57 mice, read-out: T1/2 iv (converted)
[6] = po 10 mg/kg, C57 mice, read-out: AUC po
[7] = po 10 mg/kg, C57 mice, read-out: T1/2 po (converted)

T1 sequence (P42345 1360-2549 limits assumed): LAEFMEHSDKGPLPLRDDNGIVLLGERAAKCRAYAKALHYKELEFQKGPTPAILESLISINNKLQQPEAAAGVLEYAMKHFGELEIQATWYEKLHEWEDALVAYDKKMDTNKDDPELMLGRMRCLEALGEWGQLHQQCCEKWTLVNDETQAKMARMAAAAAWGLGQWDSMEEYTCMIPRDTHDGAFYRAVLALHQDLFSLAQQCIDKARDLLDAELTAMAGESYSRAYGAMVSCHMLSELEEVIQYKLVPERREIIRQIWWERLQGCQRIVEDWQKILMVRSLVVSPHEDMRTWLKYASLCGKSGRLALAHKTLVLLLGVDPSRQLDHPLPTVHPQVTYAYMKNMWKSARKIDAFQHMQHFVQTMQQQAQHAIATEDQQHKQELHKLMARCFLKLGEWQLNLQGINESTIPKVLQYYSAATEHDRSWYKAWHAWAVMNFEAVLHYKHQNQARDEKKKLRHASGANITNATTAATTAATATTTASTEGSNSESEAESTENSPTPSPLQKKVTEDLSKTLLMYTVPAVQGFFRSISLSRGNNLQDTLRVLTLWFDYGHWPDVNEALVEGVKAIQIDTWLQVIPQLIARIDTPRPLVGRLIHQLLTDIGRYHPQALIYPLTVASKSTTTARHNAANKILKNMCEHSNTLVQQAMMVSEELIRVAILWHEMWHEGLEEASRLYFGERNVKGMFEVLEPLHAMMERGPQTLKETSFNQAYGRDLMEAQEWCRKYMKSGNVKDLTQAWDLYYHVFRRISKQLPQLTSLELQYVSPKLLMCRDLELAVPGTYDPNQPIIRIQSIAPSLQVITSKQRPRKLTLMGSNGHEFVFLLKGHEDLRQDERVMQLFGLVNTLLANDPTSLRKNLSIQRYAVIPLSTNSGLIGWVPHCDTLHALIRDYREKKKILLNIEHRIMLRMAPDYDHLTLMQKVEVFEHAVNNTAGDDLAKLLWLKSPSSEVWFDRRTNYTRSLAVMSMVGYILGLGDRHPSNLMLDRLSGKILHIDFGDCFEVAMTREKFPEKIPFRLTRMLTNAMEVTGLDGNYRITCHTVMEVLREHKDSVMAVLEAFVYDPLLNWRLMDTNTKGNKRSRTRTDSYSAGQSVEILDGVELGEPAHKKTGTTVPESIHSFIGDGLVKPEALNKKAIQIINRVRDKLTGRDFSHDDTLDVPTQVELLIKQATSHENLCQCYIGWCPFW

| Compound | pIC50 (mTOR kinase) | apparent volume of distribution (Vss), in words ([1]; iv, C57 mice) | area under curve (AUC) through injection administration route, in words ([1]; iv, C57 mice) | Tmax [1, 2] [min] | Tmax [1, 3] [min] | AUC [1, 4] [ng·h/mL] | clearance ([1]; iv 1 mg/kg, C57 mice) [mL/min/kg] | half-life [1, 5] [min] | Vd ([1]; iv 1 mg/kg, C57 mice) [L/kg] | AUC [1, 6] [ng·h/mL] | half-life [1, 7] [min] | C0 ([1]; iv 1 mg/kg, C57 mice) [ng/mL] | Cmax ([1]; po 10 mg/kg, C57 mice) [ng/mL] | F po ([1]; oral bioavailability, po 10 mg/kg vs iv 1 mg/kg, C57 mice) [%] | AUC through oral administration, in words ([1]; po, C57 mice) | inhibitory activity on mTOR kinase, in words (mTOR kinase) | half-life T1/2, in words ([1]; C57 mice) | clearance rate (CL), in words ([1]; iv, C57 mice) |
| --- | --- | --- | --- | --- | --- | --- | --- | --- | --- | --- | --- | --- | --- | --- | --- | --- | --- | --- |
| O=c1ccc2cnc3ccc(-c4ccc(F)nc4)cc3c2n1-c1cccc(C(F)(F)F)c1 [HTL-7-01, 9-[3-(6-fluoro)pyridyl]-2-oxo-1-[3-(trifluoromethyl)phenyl]-1,2-dihydrobenzo[h][1,6]naphthyridine] | 7.54 | lower | relatively high | 30 | > 30 | 592 | 27.8 | 63 | 2.29 | 699 | 121 | 574 | 298 | 12.2 | lower | – | – | – |
| COc1ccc(-c2ccc3ncc4ccc(=O)n(-c5cccc(C(F)(F)F)c5)c4c3c2)cn1 [HTL-7-03, 9-[3-(6-methoxy)pyridyl]-2-oxo-1-[3-(trifluoromethyl)phenyl]-1,2-dihydrobenzo[h][1,6]naphthyridine] | 8.14 | slightly higher | relatively high | 40 | > 30 | 668 | 24.1 | 110 | 3.24 | 1640 | 74.4 | 596 | 565 | – | – | excellent inhibitory activity | relatively longer half-life | – |
| CN1CCN(c2ccc(-c3ccc4ncc5ccc(=O)n(-c6cccc(C(F)(F)F)c6)c5c4c3)cn2)CC1 [HTL-7-17, 9-{3-[6-(4-methylpiperazin-1-yl)pyridyl]}-2-oxo-1-[3-(trifluoromethyl)phenyl]-1,2-dihydrobenzo[h][1,6]naphthyridine] | 8.94 | slightly higher | – | 20 | 19.8 | 168 | 99 | 43.1 | 3.59 | 357 | 94.8 | 364 | 144 | – | – | excellent inhibitory activity | – | relatively higher clearance rate |
